Source: patent US9492466B2, “Beta-hydroxy-gamma-aminophosphonates for treating immune disorders” (Nucitec S.A. de C.V., priority 2012, dated 2016)

Experiments:
thymus and spleen = assay: Histological studies of thymus and spleen tissue; type: in vivo, obese (fa/fa) Zucker rats; conditions: obese Zucker rats, hematoxylin and eosin
Protocol: Samples of tissue from thymus (FIG. 6) and spleen (FIG. 7) were taken and histological sections were made and stained with hematoxylin and eosin from obese (fa/fa) Zucker rats and lean rats. The histological sections from thymus show a decrease in thymic medulla in samples from obese animals. When animals were treated with Compound 2 for five weeks, a recovery of the cellularity of medulla in this lymphoid organ was observed.

Nocardia brasiliensis = assay: Reduction in mycetoma development induced in mice; type: in vivo; conditions: Balb-c mice, dexamethasone, 5 mg/kg and 50 mg/kg, after 15 days of treatment
Protocol: The ability of (2R,3S)-(2-hydroxy-5-methyl-3-trimethylammonium-hexyl)-phosphonic acid dimethyl ester; iodide at 5 mg/kg and 50 mg/kg to reduce the mycetoma development induced in mice was investigated. For this, male Balb-c mice weighing 25 grams were used. Mice were treated with dexamethasone (125 mg/kg) and mycetoma was induced with the inoculation Nocardia brasiliensis (15×10^8 cells, se) (FIG. 16).
Mycetoma is a chronic infectious disease that remains localized, involves cutaneous and subcutaneous tissue, fascia, and bone, and is noncontagious. The disease is characterized by tumefaction, draining sinuses, and the presence of sclerotia. The 31 fungi known to cause mycetoma are associated with soil and woody plants. A chronic, tumor-like deforming disease develops during subsequent years following the introduction of the etiologic agent via localized trauma.

THP-1 cells [1] = assay: Cell proliferation of THP-1 cells co-inhibited with hydrocortisone; type: cell-based, human; conditions: hydrocortisone 10 μg/mL, all used concentrations, 48 hours of treatment
Protocol: The ability of (2R,3S)-(2-hydroxy-5-methyl-3-trimethylammonium-hexyl)-phosphonic acid dimethyl ester; iodide to modify the cell proliferation of THP-1 cells was investigated. THP-1 cells were cultured in RPMI 1640 medium supplemented with 10% FBS and 100 U/ml penicillin-streptomycin. Cell cultures were incubated at 37° C. and 5% CO2. THP-1 cells were plated at 1×10^6 cells/ml in 24-well microtiter plates. Cells were co-inhibited with hydrocortisone (10 μg/mL) to inhibit cell proliferation.

THP-1 cells [2] = assay: Cell proliferation of THP-1 cells co-stimulated with lipopolysaccharide; type: cell-based, human
Protocol: The ability of (2R,3S)-(2-hydroxy-5-methyl-3-trimethylammonium-hexyl)-phosphonic acid dimethyl ester iodide to modify the cell proliferation of monocytic cells (THP-1 cells) co-stimulated with lipopolysaccharide was investigated. THP-1 cells, a human monocytic cell line, were used and cultured in RPMI 1640 medium supplemented with 10% FBS and 100 U/ml penicillin-streptomycin. Cell cultures were incubated at 37° C. and 5% CO2. THP-1 cells were plated at 1×10^6 cells/ml in 24-well microtiter plates. Cells were co-stimulated with lipopolysaccharide (LPS, 10 μg/mL) in order to induce cell proliferation. Cells were treated with the compound at different concentrations, and a reduction in the number of cells at 0.01, 10 and 100 μM at 24 hours of treatment were observed (FIG. 12).

[3] = system: liver injury present in obese (fa/fa) Zucker rats (ZDF); assay: Histological studies of liver tissue; type: in vivo; conditions: 100 mg/kg
Protocol: The ability of Compound 2 (100 mg/kg) to modify the liver injury present in obese (fa/fa) Zucker rats (ZDF) was investigated. Obese (fa/fa) Zucker rats (ZDF) and lean rats, as control, were used. Obese (fa/fa) Zucker rats (ZDF) were treated with a daily dose of 100 mg/kg of the Compound 2, 5 days a week during eight weeks.
Samples of tissue from liver were taken, and histological sections were made and stained with hematoxylin and eosin from obese (fa/fa) Zucker rats and lean rats.

blood T-lymphocytes = assay: T cell levels in blood of obese rats, 5 weeks of treatment; type: in vivo, obese (fa/fa) Zucker rats; conditions: obese Zucker rats, 100 mg/kg
Protocol: Compound 2 (100 mg/kg) was administered to obese (fa/fa) Zucker rats five days a week for 5 weeks. […] The level of T helper (CD4+) increased; cytotoxic T-lymphocyte(CD8+) levels remained unchanged.
The effect of Compound 2 on T lymphocyte populations in normal and unhealthy rats was investigated. Obese (fa/fa) Zucker rats (ZDF) and lean Wistar rats, as control, were used. Zucker rats present a mutation in the leptin receptor, which is the molecular basis of their characteristic phenotype (loss of satiety). Obese Zucker rats are considered representative of obesity-associated type diabetes in humans. They are hyperlipidaemic, grossly obese, hyperinsulinaemic, insulin resistant, and not prone to ketosis. Metabolic changes related to increased insulin resistance, including oxidative stress, have been implicated in obesity-related pathophysiology. However, most attention in recent years has been devoted to the concept that obesity elicits a chronic low-grade systemic inflammatory state.
In this study, animals were treated with 100 mg/kg of Compound 2 five days a week for 5 weeks. The circulating lymphocyte populations were identified and quantified by flow cytometry using mice monoclonal antibodies against rat CD3+ conjugated with different fluorochromes and analyzed on a FACS Calibur flow cytometer BD using the Cell Quest software.

THP-1 cells [4] = assay: Phagocytic activity of THP-1 cells (yeast phagocytosis, flow cytometry); type: cell-based, human
Protocol: The ability of (2R,3S)-(2-hydroxy-5-methyl-3-trimethylammonium-hexyl)-phosphonic acid dimethyl ester; iodide to induce the phagocytic activity of monocytic cells (THP-1 cells) was investigated. For this, THP-1 cells were differentiated using phorbol myristate 13-acetate (PMA, 100 ng/mL) in order to induce the phagocytic activity of yeast. When the cells were treated with PMA (100 ng/mL) for 48 hours cell differentiation of monocytic cells to macrophages was observed (FIG. 14). Yeast were added to cultured media and the phagocytosis was measured by flow cytometry (FIG. 15). (2R,3S)-(2-hydroxy-5-methyl-3-trimethylammonium-hexyl)-phosphonic acid dimethyl ester; iodide induced the phagocytosis of yeast by macrophages in a similar way that those macrophages treated with PMA alone.

[5] = system: T lymphocyte subpopulations; assay: T lymphocyte subpopulations in bloodstream, thymus and spleen, 8 weeks of treatment; type: in vivo, obese (fa/fa) Zucker rats (ZDF); conditions: 100 mg/kg
Source text: To determine whether the increase in lymphocytes is due to an increased production of lymphocytes or their mobility, the levels of T lymphocyte subpopulations in bloodstream, thymus, and spleen from obese (fa/fa) Zucker rats (ZDF) and lean rats (control), after 8 weeks of treatment with Compound 2 was investigated.
Obese rats were used in this study. Lymphocyte populations from bloodstream, thymus, and spleen were identified and quantified by flow cytometry using mice monoclonal antibodies against rat CD3+ conjugated with different fluorochromes and analyzed on a FACS Calibur flow cytometer BD using the Cell Quest software.

[6] = Level of glucose, triglycerides, cholesterol and liver glycogen; type: in vivo, obese (fa/fa) Zucker rats (ZDF); conditions: 100 mg/kg, eight weeks
Protocol: To determine whether the morphological and functional changes (see EXAMPLES 6 and 7) were associated with an improvement in liver metabolism, the levels of glucose, triglycerides and cholesterol were quantified. Obese (fa/fa) Zucker rats (ZDF) and lean rats, as control, were used. Obese (fa/fa) Zucker rats (ZDF) were treated with a daily dose of Compound 2 (100 mg/kg) 5 days a week during eight weeks. Plasma from blood samples was collected, and the triglycerides, cholesterol and glucose levels were quantified by colorimetric methods. Also, liver samples were taken, and liver glycogen was measured.

ALT, AST and AP in serum = assay: Level of liver enzymes (colorimetric); type: in vivo, obese (fa/fa) Zucker rats (ZDF); conditions: obese Zucker rats, 100 mg/kg, p<0.01
Protocol: To determine whether the morphological changes in liver tissue (see EXAMPLE 6) were associated with an improvement in liver function, the levels of liver enzymes were investigated. Obese (fa/fa) Zucker rats (ZDF) and lean rats, as control, were used. Obese (fa/fa) Zucker rats (ZDF) were treated with a daily dose of Compound 2 (100 mg/kg) 5 days a week during eight weeks.
Plasma from blood samples was collected and liver enzymes were quantified by colorimetric methods. Liver enzymes, or liver (hepatic) function tests, are used to determine if the liver is functioning normally, or if it has an injury or disease. Alanine aminotransferase (ALT) is typically used to detect a liver injury or an active or chronic liver problem. Aspartate aminotransferase (AST) is used to detect liver injuries and long-term liver disease. Highly elevated levels of AST may indicate active hepatitis from any cause. Alkaline phosphatase (ALP) is an enzyme found in the bile ducts of the liver. Damage or obstruction of the bile ducts may result in elevated levels of ALP.

CD4+ counts = conditions: HIV-infected patients, in combination with standard antiretroviral treatment, vs antiretroviral agents with no supplementation; cited from earlier work
blood lymphocytes = assay: T cell levels in normal rats (flow cytometry of circulating lymphocytes); type: in vivo; conditions: Wistar rats, 22.4 mg/kg
Protocol: The ability of (2R,3S)-(2-hydroxy-5-methyl-3-trimethylammonium-hexyl)-phosphonic acid; iodide (referred to herein as “Compound 1”) to modify the level of blood lymphocytes in rats was investigated. (2R,3S)-(2-hydroxy-5-methyl-3-trimethylammonium-hexyl)-phosphonic acid; iodide (22.4 mg/kg) was administered to Wistar rats 5 days a week for two weeks. The circulating lymphocyte populations were identified and quantified by flow cytometry mice monoclonal antibodies against rat CD3+ conjugated with different fluorochromes and analyzed on a FACS Calibur flow cytometer BD using the Cell Quest software. […] It is noted that administration of Compound 1 increases the levels of T helper (CD4+) and cytotoxic (CD8+) lymphocytes. In addition, an increase in regulatory T cells (CD4+CD25+) (p<0.01) was observed.

In the case of COP(=O)(C[C@H](O)[C@H](CC(C)C)[N+](C)(C)C)OC [Compound 2, (2R,3S)-(2-hydroxy-5-methyl-3-trimethylammonium-hexyl)-phosphonic acid dimethyl ester; iodide], the “spleen morphology (white pulp, lymphoid follicles)” value (thymus and spleen) is reported as “recovery”, the “cellularity of medulla in thymus (histology)” value (thymus and spleen; treated for five weeks) is reported as “recovery” and the “paw thickness (mycetoma)” value (Nocardia brasiliensis) is reported as “significant reduction”. For the same compound, the cell proliferation (THP-1 cells [1]) was “induction”, the “effect of LPS” value (THP-1 cells [2]; THP-1 cells co-stimulated with LPS 10 μg/mL) was “inhibit” and the “number of cells (cell proliferation)” value (THP-1 cells [2]; THP-1 cells, LPS 10 μg/mL, at 0.01, 10 and 100 μM, 24 hours of treatment) was “reduction”. The liver histology ([3]; eight weeks, hematoxylin and eosin) was “normal liver histology”, the “degree of fat accumulation in the liver” value ([3]; five days a week for eight weeks) was “significant reduction” and the “cytotoxic T-lymphocyte (CD8+) levels” value (blood T-lymphocytes; 5 weeks, blood) was “unchanged”. For the same compound, the “level of T helper (CD4+)” value (blood T-lymphocytes; 5 weeks, blood) was “increased”, the T cell populations (blood T-lymphocytes; 5 weeks, similar to healthy Wistar rats, although in minor intensity) was “increase” and the “phagocytosis of yeast by macrophages” value (THP-1 cells [4]; PMA-differentiated THP-1 cells, similar to macrophages treated with PMA alone) was “induced”. The cytotoxic lymphocytes ([5]; obese rats, blood) was “significant increase”, the “levels of total blood lymphocytes” value ([5]; obese rats, blood) was “increased” and the “subpopulation of T helper cells” value ([5]; spleen) was “reduction”. The “subpopulation of cytotoxic lymphocytes” value ([5]; spleen) was “reduction”, the “total T-lymphocytes” value ([5]; spleen) was “decline” and the “cytotoxic T-lymphocytes” value ([5]; thymus) was “increase”. For the same compound, the “double positive CD8+ CD4+ (DP) lymphocytes” value ([5]; thymus) was “slight decrease”, the “population of double negative CD4-CD8- (DN) lymphocytes” value ([5]; thymus) was “slight increase” and the “population of helper T cells” value ([5]; thymus) was “increase”. For the same compound, the “amount of glycogen in the liver” value ([6]; Zucker rats) was “higher”, the “cholesterol compared with control (lean) levels” value ([6]; obese Zucker rats) was “reached the control levels” and the “glucose compared with control (lean) levels” value ([6]; obese Zucker rats) was “reached the control levels”. For the same compound, the cholesterol levels ([6]; obese Zucker rats, p<0.01) was “significant reduction”, the glucose levels ([6]; obese Zucker rats, p<0.01) was “significant reduction” and the triglycerides levels ([6]; obese Zucker rats, p<0.01) was “significant reduction”. For the same compound, the “level of ALT in serum” value (ALT, AST and AP in serum; 5 days a week during eight weeks) was “significant reduction”, the “level of AP in serum” value (ALT, AST and AP in serum; eight weeks) was “significant reduction” and the “level of AST in serum” value (ALT, AST and AP in serum; eight weeks) was “significant reduction”.

In the case of C[N+](C)(C)C[C@H](O)CC(=O)[O-] [L-carnitine], the “improvement in CD4+ counts” value (CD4+ counts) is given as “greater improvement”.

In the case of CCCCCCCCCCCCCC(=O)O[C@@H]1[C@@H](C)[C@@]2(O)[C@@H](C=C(CO)C[C@]3(O)C(=O)C(C)=C[C@@H]23)[C@@H]2C(C)(C)[C@]12OC(C)=O [PMA, phorbol myristate 13-acetate, reference compound], the “cell differentiation of monocytic cells to macrophages” value (THP-1 cells [4]; THP-1 cells, 100 ng/mL, 48 hours) is reported as “observed”.

In the case of “(2R,3S)-(2-hydroxy-5-methyl-3-trimethylammonium-hexyl)-phosphonic acid; iodide [Compound 1]”, the “level of total blood T-lymphocytes” value (blood T-lymphocytes; five days a week for 5 weeks, vs control group) is reported as “increased”, the “level of total T-lymphocytes” value (blood lymphocytes; 5 days a week for two weeks, vs control group) is reported as “increased” and the “levels of T helper (CD4+) lymphocytes” value (blood lymphocytes; two weeks) is reported as “increases”. For the same compound, the “levels of cytotoxic (CD8+) lymphocytes” value (blood lymphocytes; two weeks) was “increases” and the “regulatory T cells (CD4+CD25+)” value (blood lymphocytes; two weeks, p<0.01) was “increase”.
